Assay type in all cases: cell-based, human
Test [1] relates to aggregates (NR), KhES-1-derived neural retinal tissues. In words: Study on enhancement in CD39 expression, FACS (Example 25). The settings on record: added Day 17 to Day 25; DMSO control. How it is done:
For aggregates (NR) prepared by adding 300 nM SAG at the start of differentiation (dd0), 10 neural retinal tissues were transferred to low adhesive 60-mm Petri dish for suspension culture (manufactured by Sumitomo Bakelite Co., Ltd.) on Day 17 from initiation of the suspension culture. 1 mM or 0.2 mM adenosine (A2A receptor agonist, manufactured by Sigma-Aldrich Co. LLC), 1 mM, 0.2 mM, or 0.04 mM AMP-PNP (manufactured by Tocris Bioscience), 5 mM, 1 mM, 0.2 mM, or 0.04 mM ATP disodium salt (manufactured by Tocris Bioscience), and 1μ, 0.2μ, or 0.04μ M CGS 21680 (Adenosine A2A Receptor Agonist, manufactured by Tocris Bioscience) were added into 4 mL of NucT0 medium. Culture was performed up to Day 25 from initiation of the suspension culture. Change in expression of CD39 and CXCR4 was stained using Mouse IgG1-APC conjugate antibody (Miltenyi Biotec), anti-CD39-BV421 conjugate antibody (BD Biosciences) and anti-CXCR4-APC conjugate antibody (Miltenyi Biotec) and measured using FACSCantoII (BD Biosciences), and analysis was conducted using FlowJo. As a control, a DMSO addition group was established.

Test [2] deals with Rx::Venus-sorted cells (KhES-1-derived NR, Day 25). Put plainly: Search of factor that maintains property of retina at preparation into sheet again (Example 18). The settings on record: compared with PBS control; 10 days after seeding. How it is done:
The aggregates (NR) of Day 25 from initiation of the suspension culture prepared in Example 1 were washed with PBS, and a neuronal cell dispersion solution (manufactured by FUJIFILM Wako Pure Chemical Corp.) was added. After incubation at 37° C., they were dispersed into single cells by pipetting, and sorting was carried out with Rx::Venus as an index using Cell sorter ARIAII (Becton, Dickinson and Company).
3 days after seeding, the medium was similarly replaced so as to maintain the concentrations of the low-molecular compounds or the proteins described in Tables 1 and 2. […] 10 days after seeding, fixation was performed in 4% PFA, and the evaluation of the cells after sorting was conducted with Rx::Venus as an index under a fluorescence microscope (BZ-X810 manufactured by Keyence Corp.).

The subject of test [3] is single cells dispersed from KhES-1- and 1231A3-derived aggregates. In words: Aggregate proliferation-promoting factor: aggregate area in suspension culture with Y-27632 (Example 2). The settings on record: SAG 300 nM or CHIR99021 3 μM in addition to 10 μM Y-27632; Day 1, 7, 14. Here is the method:
The aggregates of Day 20 (1231A3) and Day 27 (KhES-1) from initiation of the suspension culture prepared as in Example 1 were washed with PBS, and a neuronal cell dispersion solution (manufactured by FUJIFILM Wako Pure Chemical Corp.) was added. After incubation at 37° C., they were dispersed into single cells by pipetting. These cells were suspended in 100 μL of a serum-free medium containing 10 μM Y-27632 (FUJIFILM Wako Pure Chemical Corp.) so as to become 2 to 5×10^5 cells per well of a non-cell adhesive 96-well culture plate (trade name: PrimeSurface 96-well V-bottom plate, manufactured by Sumitomo Bakelite Co., Ltd.), and suspension-cultured at 37° C. and 5% CO2. […] The reformed states of the aggregates were observed under a bright field microscope and a fluorescence microscope (BZ-X810 manufactured by Keyence Corp.) on Day 1, Day 7, and Day 14 after suspension culture for aggregate reforming. The areas of the aggregates were measured in Image J. The results of the KhES-1-derived cells are shown in FIG. 6 (an average value from 12 […] measured). The results of the 1231A3-derived cells in which the reformed states of the aggregates of Day 1 after suspension culture were observed are shown in FIG. 7.

The subject of test [4] is single cell suspension of dispersed retinal cells (KhES-1-derived). Put plainly: Layer structure formation-promoting factor: reformed aggregates, immunostained sections (Example 3). The settings on record: 300 nM SAG in addition to 3 μM CHIR99021. Here is the method:
The aggregates of Day 26 from initiation of the suspension culture prepared as in Example 1 were washed with PBS, and a neuronal cell dispersion solution (manufactured by FUJIFILM Wako Pure Chemical Corp.) was added. After incubation at 37° C., they were dispersed into single cells by pipetting. These cells were suspended in 100 μL of a serum-free medium so as to become 3.0×10^4 cells per well of a non-cell adhesive 96-well culture plate (trade name: PrimeSurface 96-well V-bottom plate, manufactured by Sumitomo Bakelite Co., Ltd.), and suspension-cultured at 37° C. and 5% CO2.
The aggregates of Day 15 (corresponding to Differentiation Day 41) and Day 28 (corresponding to Differentiation Day 54) after suspension culture for aggregate reforming were fixed in 4% PFA, and frozen sections were prepared. These frozen sections were subjected to immunostaining using DAPI and anti-Chx10 antibody (trade name: Anti CHX10 Antibody, Exalpha Biologicals Inc.), anti-β-catenin antibody (R&D Systems, Inc.), anti-collagen IV antibody (Abcam plc), anti-Zo-1 antibody (Invitrogen Corp.), anti-Ki67 antibody (Becton, Dickinson and Company), anti-Pax6 antibody (BioLegend, Inc.), anti-RxR-γ (RxRg) antibody (Spring Bioscience Corp.), anti-CRX antibody (Abnova Corp.), anti-NRL antibody (R&D Systems, Inc.), anti-recoverin antibody (manufactured by Proteintech Group, Inc.), anti-Islet-1 antibody (Developmental Studies Hybridoma Bank (DSHB)), anti-GS antibody (Sigma-Aldrich Co., LLC), anti-Brn3 antibody (Santa Cruz Biotechnology), and anti-calretinin antibody (R&D Systems, Inc.).
These immunostained sections were observed under a bright field microscope and a fluorescence microscope (BZ-X810 manufactured by Keyence Corp.) and a confocal laser scanning fluorescence microscope (SP-8 manufactured by Leica), and the results are shown in FIGS. 11 to 20. […] From FIGS. 19 and 20, it was confirmed that RxR-Y(RxRg)-positive and CRX-positive cone progenitor cells and recoverin-positive and CRX-positive photoreceptor progenitor cells were differentiated, and the differentiation of Islet-1-positive and Brn3-positive retinal ganglion cells and calretinin-positive amacrine cells was also confirmed.

For test [5], the system named is KhES-1 Rx::Venus aggregates (NR) of Day 26. Put plainly: CD39 expression analysis with different concentrations of SAG at start of differentiation (Example 24). Here is the method: The morphology of aggregates (NR) of Day 26 from initiation of the suspension culture prepared by adding (1) 0 nM, (2) 30 nM, or (3) 300 nM SAG at the start of differentiation was observed under a microscope.
The aggregates were dispersed into single cells using a neuronal cell dispersion solution, and FACS analysis was conducted as to the expression of CD39 and CXCR4 using anti-CD39-APC conjugate antibody (Miltenyi Biotec) and anti-CXCR4-APC conjugate antibody (Miltenyi Biotec). The percentage of an expressing cell population was measured using FACSCantoII (BD Biosciences), and analysis was conducted using FlowJo. These aggregates were fixed in 4% PFA, and sections were prepared and then subjected to staining using anti-ALDH1A1 antibody (R&D Systems, Inc.), anti-CoupTF1 antibody (Perseus Proteomics Inc. (PPMX)), anti-LHX2 antibody (manufactured by Merck Millipore), anti-Chx10 antibody (manufactured by Exalpha Biologicals Inc.), anti-Pax2 antibody (manufactured by Covance), and anti-NKX2.1 antibody (manufactured by Leica).

For test [6], the system named is Rx::Venus-positive cells (KhES-1-derived). In words: Maintenance culture of retinal cell in Rx::Venus strain (Example 13). To be noted: 20 ng/ml continuously added; after 34 days. How it is done: The aggregates of Day 31 from initiation of the suspension culture prepared as in Example 1 were washed with PBS, and a neuronal cell dispersion solution (manufactured by FUJIFILM Wako Pure Chemical Corp.) was added. After incubation at 37° C., they were dispersed into single cells by pipetting.
After 34 days, cell sheets were fixed in 4% PFA, and the nuclei were stained using DAPI. Observation was made focusing on the areas of Rx::Venus-positive cells, and the state of maintenance of retinal cells was studied.

Data on five compounds can be found in patent US20250019652A1, “PRODUCTION METHOD FOR SHEET-LIKE RETINAL TISSUE” (RIKEN, priority 2021, published 2025).

With `Nc1ncnc2c1ncn2[C@@H]1O[C@H](COP(=O)(O)OP(=O)([O-])OP(=O)([O-])O)[C@@H](O)[C@H]1O.[Na+].[Na+]` [ATP], in test [1], the “expression of CD39 (FACS)” value is “enhancing the expression of CD39” and the “expression of CXCR4 (FACS)” value is reported as “decreasing the expression of CXCR4”.

Regarding `O=C(Nc1cccc2cccnc12)c1ccc(N2C(=O)[C@@H]3[C@H](C2=O)[C@@H]2C=C[C@H]3C2)cc1` [IWR1 endo, 4-[(3aR,4S,7R,7aS)-1,3,3a,4,7,7a-hexahydro-1,3-dioxo-4,7-methano-2H-isoindol-2-yl]-N-8-quinolinyl-benzamide, reference compound], the “expression intensity of Rx::Venus” value in test [2] was “high expression intensity of Rx::Venus”.

On to `CNC1CCC(N(Cc2cccc(-c3ccncc3)c2)C(=O)c2sc3ccccc3c2Cl)CC1` (stereo not shown) [SAG], for which the “size of reformed aggregates versus only Y-27632” value in test [3] is given as “larger aggregates were reformed”. Also, in test [4], the size of aggregates result is given as “aggregates were larger”. The morphology of aggregates entry in test [5] (0 nM and 30 nM SAG compared with 300 nM SAG at dd0, Day 26) was “aggregates were larger and a layer structure was clearer”. Besides, in test [5] (300 nM SAG at dd0), the “expression of CD39 (FACS)” value was “CD39 was expressed” and the “expression of CXCR4 (FACS)” value was “low expression of CXCR4 was observed”. In addition, in test [5] (addition of SAG on dd0), the “expression of dorsal marker ALDH1A1” value was “Decrease in expression of a dorsal marker ALDH1A1” and the “expression of ventral marker CoupTF1” value is “increase in expression of a ventral marker CoupTF1”.

As for EGF: growth factor added at 20 ng/ml, the “maintenance of Rx::Venus-positive cells” value in test [6] is reported as “Rx::Venus-positive cells were widely maintained”.

Take “FGF2: fibroblast growth factor, FGF signaling pathway agonist”: the “maintenance of Rx::Venus-positive cells” value in test [6] is recorded as “Rx::Venus-positive cells were widely maintained”. The “expression intensity of Rx::Venus” value in test [2] is recorded as “high expression intensity of Rx::Venus”.
